GI50 and TGI data for 7 compounds are collected here from PubChem BioAssay (NCI).

Some test systems named below: A498 renal; DU-145 prostate; HOP-92 NSCLC; IGROV1 ovarian; K-562 leukemia; LOX IMVI melanoma; OVCAR-5 ovarian; OVCAR-8 ovarian; PC-3 prostate; SR leukemia.
Test in all cases: DTP human tumour cell line panel, 48 h

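Results reflect a 48-hour exposure of cells in 96-well plates to compound at five concentrations. Here, GI50 denotes the concentration required for 50% inhibition of growth. The concentration for full growth arrest is given as TGI.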

The term GI50 denotes the concentration that inhibits growth by half. As usually defined, the TGI is the concentration giving total growth inhibition. High values mean lower sensitivity of the cells, low ones greater sensitivity of the cells. Turning to `CNCCn1c(=O)c2cc(OC)c(OC)cc2c2ccc3cc4c(cc3c21)OCO4`, the concentration for 50% growth inhibition (GI50) in the experiment with A498 renal was 0.126 µM; in the experiment on DU-145 prostate, 0.122 µM; with HOP-92 NSCLC it was 0.16 µM; in the experiment with IGROV1 ovarian it was 0.142 µM; with K-562 leukemia it was 0.0552 µM; in the experiment with LOX IMVI melanoma it was 0.0577 µM. Also, the GI50 in the experiment with OVCAR-5 ovarian is 0.195 µM; in the experiment on OVCAR-8 ovarian it was 0.169 µM; with PC-3 prostate it was 0.109 µM; with SR leukemia it was 0.0173 µM. For the same compound, the concentration for total growth inhibition (TGI) with A498 renal was 0.609 µM; in the experiment with DU-145 prostate, 2.51 µM; in the experiment on HOP-92 NSCLC, 2.13 µM; in the experiment with IGROV1 ovarian it was 2.29 µM; with K-562 leukemia, 5.19 µM; in the experiment with LOX IMVI melanoma, 0.173 µM. Besides, the TGI turned out to be 2.6 µM in the experiment with OVCAR-5 ovarian, 6.37 µM with OVCAR-8 ovarian, 6.23 µM in the experiment with PC-3 prostate and 0.972 µM with SR leukemia.
Regarding `Cc1ccc2nc(-c3ccc(N(C)C)c(Br)c3)cn2c1`, the GI50 is greater than 100 µM with A498 renal; greater than 100 µM in the experiment with DU-145 prostate; 44.4 µM in the experiment with HOP-92 NSCLC; 2.93 µM with K-562 leukemia; 35.2 µM in the experiment with LOX IMVI melanoma; greater than 100 µM with OVCAR-5 ovarian. In addition, the GI50 in the experiment on OVCAR-8 ovarian was 17.4 µM; in the experiment with PC-3 prostate, 5.69 µM; in the experiment on SR leukemia, 1.46 µM. The TGI in the experiment with A498 renal, in the experiment on DU-145 prostate, with HOP-92 NSCLC, in the experiment with K-562 leukemia, in the experiment with LOX IMVI melanoma and in the experiment with OVCAR-5 ovarian was greater than 100 µM in each case. In addition, the TGI in the experiment on OVCAR-8 ovarian, in the experiment with PC-3 prostate and in the experiment with SR leukemia was greater than 100 µM each time.
As to `Nc1ccccc1C#C/C=C\C#Cc1ccccc1[N+](=O)[O-]`, the GI50 was 25.4 µM in the experiment with A498 renal; 7.86 µM in the experiment with DU-145 prostate; 31.7 µM in the experiment on HOP-92 NSCLC; 10.9 µM in the experiment on IGROV1 ovarian; 0.533 µM in the experiment on K-562 leukemia; 2.28 µM in the experiment on LOX IMVI melanoma. The GI50 was 17.4 µM in the experiment with OVCAR-5 ovarian, 4.83 µM with OVCAR-8 ovarian, 6.82 µM in the experiment on PC-3 prostate and 0.289 µM in the experiment on SR leukemia. Further, the concentration for total growth inhibition (TGI) with A498 renal was 69.7 µM; with DU-145 prostate it was 29.2 µM; in the experiment on HOP-92 NSCLC, greater than 100 µM; in the experiment on IGROV1 ovarian, 79.8 µM; in the experiment with K-562 leukemia, 5.93 µM; in the experiment with LOX IMVI melanoma it was 15.7 µM. Moreover, the TGI in the experiment with OVCAR-5 ovarian is 33.6 µM; in the experiment on OVCAR-8 ovarian, 32.9 µM; in the experiment with PC-3 prostate, greater than 100 µM; in the experiment on SR leukemia, 5.54 µM.
Consider `CCC[n+]1cc2cc(OC)c(OC)cc2c2c1-c1cc3c(cc1C2)OCO3`, for which the GI50 in the experiment on A498 renal is 17.6 µM; with DU-145 prostate it was 7.82 µM; with HOP-92 NSCLC it was 10.1 µM; in the experiment with IGROV1 ovarian, 2.27 µM; with K-562 leukemia, 3.03 µM; in the experiment on LOX IMVI melanoma, 8.25 µM. For the same compound, the GI50 was 32.9 µM in the experiment with OVCAR-5 ovarian, 2.18 µM in the experiment on OVCAR-8 ovarian, 4.7 µM with PC-3 prostate and 2.18 µM with SR leukemia. For the same compound, the total growth inhibition concentration (TGI) in the experiment with A498 renal is 50.9 µM; in the experiment on DU-145 prostate, 38.6 µM; in the experiment with HOP-92 NSCLC, 40.6 µM; in the experiment with IGROV1 ovarian it was 12.6 µM; in the experiment with K-562 leukemia it was greater than 20.5 µM; in the experiment on LOX IMVI melanoma, greater than 62.2 µM. Further, the concentration for total growth inhibition (TGI) with OVCAR-5 ovarian is 67.8 µM; in the experiment with OVCAR-8 ovarian it was 6.23 µM; with PC-3 prostate it was 20.7 µM; in the experiment with SR leukemia it was 26.2 µM.
`CCOc1cc(/C=N\Nc2nnc(C)n2N)c(C)cc1N(CCCl)CCCl`: the concentration for 50% growth inhibition (GI50) is 0.212 µM in the experiment with A498 renal; 2.68 µM with DU-145 prostate; 0.163 µM in the experiment on HOP-92 NSCLC; 1.96 µM with IGROV1 ovarian; 0.646 µM in the experiment on K-562 leukemia; 0.349 µM with LOX IMVI melanoma. Also, the GI50 was 3.05 µM in the experiment with OVCAR-5 ovarian, 1.34 µM in the experiment with OVCAR-8 ovarian, 0.927 µM in the experiment with PC-3 prostate and 0.558 µM in the experiment on SR leukemia. In addition, the total growth inhibition concentration (TGI) with A498 renal is 2.41 µM; in the experiment with DU-145 prostate, greater than 100 µM; in the experiment on HOP-92 NSCLC, 1.12 µM; with IGROV1 ovarian, greater than 100 µM; in the experiment with K-562 leukemia it was greater than 100 µM; with LOX IMVI melanoma, 11.2 µM. Further, the TGI in the experiment with OVCAR-5 ovarian is greater than 100 µM; in the experiment on OVCAR-8 ovarian it was greater than 36 µM; with PC-3 prostate it was 7.41 µM; with SR leukemia, 23.5 µM.
Regarding `COc1cc(/C=C2\C(=O)Nc3ccc(N(C)C)cc32)cc(OC)c1OC`, the GI50 with A498 renal was 4.67 µM; in the experiment with DU-145 prostate, 3.08 µM; in the experiment on HOP-92 NSCLC, 3.17 µM; in the experiment with IGROV1 ovarian it was 1.5 µM; in the experiment on K-562 leukemia, 0.58 µM; with LOX IMVI melanoma it was 3.2 µM. Further, the GI50 in the experiment on OVCAR-5 ovarian is 5.86 µM; in the experiment on OVCAR-8 ovarian it was 4.46 µM; in the experiment on PC-3 prostate it was 1.73 µM; in the experiment with SR leukemia it was 0.34 µM. The total growth inhibition concentration (TGI) with A498 renal is greater than 100 µM; in the experiment with DU-145 prostate, greater than 29.3 µM; in the experiment with HOP-92 NSCLC it was 36.3 µM; in the experiment with IGROV1 ovarian, 5.43 µM; in the experiment with K-562 leukemia, greater than 25.6 µM; with LOX IMVI melanoma it was 18.6 µM. The total growth inhibition concentration (TGI) in the experiment with OVCAR-5 ovarian was greater than 80.2 µM; in the experiment on OVCAR-8 ovarian it was greater than 79.4 µM; in the experiment with PC-3 prostate, greater than 100 µM; with SR leukemia it was 2.4 µM.
For the compound `O=C(O)c1ccc2c(c1)CCCC(c1ccc(Cl)cc1Cl)=C2c1ccc(O[C@H]2CCN(CCCF)C2)cc1`, the GI50 with A498 renal is 11.5 µM; in the experiment with DU-145 prostate, 14.2 µM; with HOP-92 NSCLC it was 11.3 µM; in the experiment with IGROV1 ovarian, 13.8 µM; in the experiment on K-562 leukemia it was 8.05 µM; with LOX IMVI melanoma, 11 µM. Besides, the GI50 with OVCAR-5 ovarian was 17.4 µM; in the experiment on OVCAR-8 ovarian it was 13.5 µM; in the experiment with PC-3 prostate, 10.4 µM; with SR leukemia, 4.87 µM. For the same compound, the TGI in the experiment with A498 renal stood at 24.6 µM; with DU-145 prostate, 27.5 µM; in the experiment on HOP-92 NSCLC, 25.1 µM; in the experiment on IGROV1 ovarian it was 35.6 µM; in the experiment on K-562 leukemia it was 23.1 µM; in the experiment with LOX IMVI melanoma it was 26.1 µM. Also, the TGI with OVCAR-5 ovarian turned out to be 32.1 µM; in the experiment on OVCAR-8 ovarian, 33.7 µM; in the experiment with PC-3 prostate it was 24.2 µM; in the experiment with SR leukemia, 20.7 µM.
